Data from article PMC9499525, “Tissue-restricted inhibition of mTOR using chemical genetics” (Proceedings of the National Academy of Sciences of the …, 2022).

Experiments:
[1] = system: Flp-In 293 cells with and without FKBP12 V55G-HA; assay: Cell growth by CellTiter-Glo in Flp-In 293 cells; format: cell-based, human; conditions: 72 h treatment
Description: All cell lines were maintained in DMEM (Gibco) supplemented with 10% heat-inactivated FBS (Axenia Biologix) at 37 °C in 5% CO2. Flp-In T-REx 293 cells were obtained from Thermo Fisher supplemented with 15 µg/mL blasticin and 100 µg/mL Zeocin. […] When indicated, cells were treated with drugs at 60–80% confluency at a final DMSO concentration of 0.1%.
Cells were seeded into 96-well tissue-culture treated plates (Greiner) and were allowed to incubate for 24 h. Cells were treated with indicated compounds and incubated for 72 h (100 µL final well volume, 0.1% DMSO). Cell viability was assessed by CellTiter-Glo (Promega). Assay reagent was diluted 1:4 in PBS containing 1% Triton X-100, and 100 µL was added to each well and mixed on a plate shaker for 20 min. Luminescence was measured on a Tecan Spark 20M.

[2] = system: S. cerevisiae BY4741 fpr1-KO expressing human FKBP12 variants; assay: Yeast disk diffusion growth inhibition assay; format: cell-based, Saccharomyces cerevisiae; conditions: 100 µM on disk, 3 d
Source text: BY4741 fpr1::URA3 yeast were generated by homologous recombination, selected on Ura- synthetic complete medium and subsequently grown in yeast extract-peptone-dextrose (YPD) medium ([46]). Human FKBP12 coding sequence was cloned via Gibson assembly into a pCH043 yeast expression vector, which had been previously modified with an HIS3 selection open reading frame (ORF). The C-terminal HA-tag and F46/V55 mutations were introduced by site-directed mutagenesis PCR. Plasmids were transformed into the BY4741 fpr1::URA3 strain and selected on His- synthetic complete medium. Isolated strains were verified by plasmid sequencing. To prepare yeast protein lysates, 2 optical density (OD) equivalents from an overnight culture was resuspended in 200 µl 0.1 M NaOH and incubated at room temperature for 15 min. Cells were pelleted, resuspended in 50 µL 2x SDS loading dye, and heated at 95 °C for 5 min. Following centrifugation at 20,000 × g for 10 min, supernatant was saved for analysis.
Yeast strains containing FKBP12-expression vectors were shaken overnight at 30 °C in 3 mL His- synthetic complete media. 0.1 OD of culture was spun down, resuspended in 1 mL sterile water, and 100 µL was spread on His-synthetic media containing galactose/raffinose to induce protein expression. Plates were incubated at 30 °C for 1 h to dry. Filter paper circles were prepared with a hole punch, placed on the plate, and 5 µL of DMSO, 100 µM rapamycin, or 100 µM Rapa* compound was pipetted onto the filter paper. Plates were incubated at 30 °C for 3 d before zones of growth inhibition were measured.

[3] = biological target: T1, FKBP12 V55G-HA / GST-mTOR FRB domain ternary complex (Homo sapiens, UniProt P42345+P62942, V56G); assay: TR-FRET ternary complex formation, FKBP12 V55G with mTOR FRB; format: binding; conditions: FKBP12 V55G + mTOR FRB, n = 3, read-out: EC50 of ternary complex induction, FKBP12 V55G
T1 construct: recombinant HA-tagged wild-type or V55G mutant FKBP12 with GST-tagged mTOR FRB domain; 8xHis (cleaved yes); made in house; host or cells: E. coli BL21 (DE3) for FKBP12
T1 sequence (P62942 whole entry V56G, the tested form may be a part): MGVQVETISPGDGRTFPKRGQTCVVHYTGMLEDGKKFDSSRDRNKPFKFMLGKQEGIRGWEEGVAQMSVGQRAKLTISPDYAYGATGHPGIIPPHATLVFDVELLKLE
T1 sequence (P42345 2012-2144 limits assumed): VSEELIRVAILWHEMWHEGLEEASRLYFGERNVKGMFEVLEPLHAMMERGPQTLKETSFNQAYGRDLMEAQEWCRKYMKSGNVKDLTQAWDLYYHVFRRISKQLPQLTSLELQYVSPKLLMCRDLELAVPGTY
Description: TR-FRET assay was performed using recommended conditions from Cisbio with slight modifications. FKBP12-HA, FKBP12 V55G-HA, and GST-mTORFRB recombinant proteins were each diluted to 5 nM in assay buffer (20 mM HEPES pH 7.5, 150 mM NaCl, 0.05% Tween-20, 0.1% bovine serum albumin [BSA], 0.5 mM dithiothreitol [DTT]). Anti-GST-Tb (Cisbio) and Anti-HA-XL665 (Cisbio) were diluted to 0.625 µg/mL and 5 µg/mL, respectively, in assay buffer. Rapa* compounds and FK506 were diluted to 50 µM and rapamycin to 5 µM in assay buffer containing 5% DMSO, and threefold serial dilution series were made from these solutions. We mixed 4 µL diluted FKBP12-HA protein, 4 µL diluted GST-mTORFRB, and 4 µL of compound or DMSO control in a well of a black low-volume 384-well plate (Corning 4514), and the mixture was incubated at room temperature for 1 h. We then added 4 µL of Anti-GST-Tb, and 4 µL Anti-HA-XL665, and the mixture was incubated at room temperature for an additional 1 h. Time-resolved fluorescence was read on a Tecan Spark 20M plate reader with the following parameters: Lag time: 60 µs; Integration time: 500 µs; Read A: Excitation filter 320 ([25]) nm, Emission filter 610 ([25]) nm, Gain 130; Read B: Excitation filter 320 ([25]) nm, Emission filter 665 ([8]) nm, Gain 165. Three replicates were performed for each assay condition. […]
Human FKBP12 coding sequence was cloned a pET-47b bacterial expression vector using Gibson assembly and a C-terminal HA-tag was added by QuickChange PCR. FKBP12 proteins were expressed as 8xHis fusions in E. coli BL21 (DE3) cells. […] Samples were then purified by size exclusion chromatography, concentrated to 10-20 mg/mL, and snap frozen in liquid nitrogen. pGEX-2T FRB was a gift from Jie Chen (Addgene plasmid #26607). mTOR FRB was expressed as a GST-fusion and purified as previously described (1). […]
PAMPA was performed by Quintara Discovery as described previously (2). Compounds were analyzed at 100 µM in PBS and measured using liquid chromatography-mass spectrometry (LC-MS) after 5 hours. […] Compounds were analyzed at 10 µM and measured by LC-MS after 1 hour.

In the case of CCO/N=C1/C[C@@H]([C@H](C)C[C@@H]2CC[C@@H](O)[C@H](OC)C2)OC(=O)[C@@H]2CCCCN2C(=O)C(=O)[C@]2(O)O[C@@H](CC[C@H]2C)C[C@H](OC)/C(C)=C/C=C/C=C/[C@@H](C)C[C@@H](C)C(=O)[C@H](OC)[C@H](O)/C(C)=C/[C@H]1C [Rapa*-3Z], the “Cell growth inhibition, 293 cells with and without FKBP12 V55G” value [1] is reported as “selectively inhibited growth of mutant-expressing 293 cells”, the “Growth inhibition of yeast expressing FKBP12 V55G” value [2] is reported as “displayed the highest level of inhibition” and the EC50 [3] is reported as 0.0118 µM.
